# Source: patent EP1104674A1, “O,o'-dihydroxy azo dyes as medicinal components with TPO-agonistic or -synergetic activity” (Curacyte AG, priority 1999, dated 2001)
# Molecular target: T1, humanen mpl-Rezeptor (Homo sapiens, UniProt P40238)
# T1 sequence (P40238 26-635): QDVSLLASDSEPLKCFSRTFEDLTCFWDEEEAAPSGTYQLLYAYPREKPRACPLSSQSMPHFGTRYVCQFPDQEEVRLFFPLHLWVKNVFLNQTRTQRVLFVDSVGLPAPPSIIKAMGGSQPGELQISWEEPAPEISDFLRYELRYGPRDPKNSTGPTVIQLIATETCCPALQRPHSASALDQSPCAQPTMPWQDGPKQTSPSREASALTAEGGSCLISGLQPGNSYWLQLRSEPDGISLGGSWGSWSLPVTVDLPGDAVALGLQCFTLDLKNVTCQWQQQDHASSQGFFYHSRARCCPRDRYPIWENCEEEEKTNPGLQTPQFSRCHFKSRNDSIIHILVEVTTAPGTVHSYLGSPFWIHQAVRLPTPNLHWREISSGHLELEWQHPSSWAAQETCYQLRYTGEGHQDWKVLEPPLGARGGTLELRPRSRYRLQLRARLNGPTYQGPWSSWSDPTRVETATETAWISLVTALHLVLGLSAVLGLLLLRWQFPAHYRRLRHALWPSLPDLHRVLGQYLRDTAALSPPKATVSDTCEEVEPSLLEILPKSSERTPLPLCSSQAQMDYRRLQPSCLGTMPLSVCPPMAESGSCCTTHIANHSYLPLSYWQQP
# Experiment: TPO-dependent cell proliferation test with BaF3 cells transfected with the human mpl receptor (BaF3/mpl), WST readout
# Format: cell-based
# Settings: BaF3-mpl Rezeptor Proliferationstest; 48 bis 72 h; half-maximal stimulation after background subtraction
# Description: Die Bioaktivität der erfindungsgemäßen Verbindungen kann mittels eines TPO-abhängigen Zellproliferationstests gemessen werden. Die Substanzen dürfen keine Wirkung auf die nicht transfektierten parenteralen BaF3 Zellen ausüben. Murine IL-3-abhängig wachsende BaF3 Zellen wurden mit dem humanen mpl-Rezeptor transfektiert. In Abwesenheit von IL-3 ist die Proliferation und das Überleben dieser Zellen abhängig von TPO. Die parentale, untransfektierte Zell-Linie reagiert nicht auf humanes TPO, proliferiert aber in Gegenwart von IL-3. Die Bestimmung der Zellproliferation erfolgt nach literaturbekannten Verfahren (WO 96/40750). Die chemischen Substanz-Bibliotheken wurden in Bioassays mit den beiden obigen Zell-Linien gescreent. Die Zellen wurden in Gegenwart von IL-3 (BaF3 parental) bzw. TPO (BaF3-mpl-Rezeptor tragend = BaF3/mpl) in RPMI 1640 Medium in Gegenwart von 10 % FCS (fetales Kälberserum) gezüchtet. Für den Test wurden die Zellen zweimal in IL-3 bzw. TPO freiem Medium gewaschen und im Medium, das kein TPO bzw. IL-3 enthielt, resuspendiert. Diese Zellsuspension wurde dann zur Vertiefung einer 96 Tüpfelplatte (Costar), die TPO oder IL-3 und/oder Verbindung enthielt, in einer Menge von 10^4 Zellen/Vertiefung zugegeben. Die Zellen wurden dann für 48 bis 72 h bei 37°C in einem CO2 Inkubator inkubiert. Die proliferative Aktivität wurde bestimmt durch die Zugabe von WST (WST: Zell-Proliferations-Reagens; BM-Katalog-Nr. 1644807 "Tetrazolium-Salz").WST wird von proliferierenden Zellen zu Formazan umgewandelt und diese Umwandlung, als Maß für die Proliferation wird mittels OD (OD: optical density) bei 570 nm in einem ELISA Platten Meßgerät bestimmt.
# Zur Ermittlung der halbmaximalen Stimulation wurde vom maximal erzielten Signal der Background (Zellen ohne Substanz) abgezogen und dieser Wert durch 2 geteilt. Dieser Wert plus dem Background-Wert wurden dann zur Bestimmung der EC50 (halbmaximale excitatorv concentration; Substratkonzentration, bei der die Substanz ihre halbmaximale Wirksamkeit im BaF3-mpl Rezeptor Proliferationstest ausübt) herangezogen. In Tabelle 3 sind die EC50-Werte bespielhaft für drei untersuchte Verbindungen dargestellt.
# Die untersuchten Verbindungen stimulieren die Proliferation von mit mpl-Rezepror transfektierten BaF3 Zellen in einer Dosis abhängigen Weise. Die Proliferation von parenteralen Zell-Linien wird nicht stimuliert. Auch in Abwesenheit von TPO stimulieren die Verbindungen die Proliferation der BaF3/mpl-Zellen in wochenlanger Kultur. Tabelle 3
row,EC50 [nM],SMILES
1,4480,Cc1ccc(NC(=O)c2cc3ccccc3c(N=Nc3cc(S(=O)(=O)O)ccc3O)c2O)c(C)c1 [Beispiel 15]
2,1370,O=[N+]([O-])c1ccc2c(N=Nc3ccc4ccccc4c3O)c(O)cc(S(=O)(=O)O)c2c1 [Beispiel 9]
3,1590,O=[N+]([O-])c1ccc2c(N=Nc3c(O)ccc4ccccc34)c(O)cc(S(=O)(=O)O)c2c1 [Beispiel 12]
4,5580,Cc1ccc(O)c(N=Nc2c(O)cc(S(=O)(=O)O)c3ccccc23)c1 [Beispiel 13]
5,72.8,"O=S(=O)(O)c1cccc2c(O)c(N=Nc3ccc(C(F)(F)F)cc3O)ccc12 [Beispiel 20, 5-Hydroxy-6-(2-hydroxy-4-trifluormethyl-phenylazo)naphthalin-1-sulfonsäure]"
